Measurements from US8883782B2, “Spiro-tetracyclic ring compounds as beta-secretase modulators and methods of use” (Amgen Inc., priority 2010, dated 2014).
Read-outs that look alike come from different tables or passages of the source.

Columns and labels:
[1] = tested on: Aβ40 in conditioned medium of cells stably expressing Amyloid Precursor Protein (APP); assay: In vitro BACE cell-based assay (Aβ40 in conditioned medium, sandwich ELISA); conditions: Homo sapiens
Outline: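 Secreted Aβ40 is captured with pAb40 and detected with biotinylated 6E10, read by europium time-resolved fluorescence. IC50 comes from percent inhibition versus concentration.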

[2] = biological target: Beta Secretase enzyme (BACE) (Homo sapiens, UniProt P56817); assay: In vitro enzymatic BACE FRET (fluorescence resonance energy transfer) assay; assay type: biochemical; conditions: average IC50, enzyme assay
Chain of Beta Secretase enzyme (BACE) (P56817 46-501, species assumed): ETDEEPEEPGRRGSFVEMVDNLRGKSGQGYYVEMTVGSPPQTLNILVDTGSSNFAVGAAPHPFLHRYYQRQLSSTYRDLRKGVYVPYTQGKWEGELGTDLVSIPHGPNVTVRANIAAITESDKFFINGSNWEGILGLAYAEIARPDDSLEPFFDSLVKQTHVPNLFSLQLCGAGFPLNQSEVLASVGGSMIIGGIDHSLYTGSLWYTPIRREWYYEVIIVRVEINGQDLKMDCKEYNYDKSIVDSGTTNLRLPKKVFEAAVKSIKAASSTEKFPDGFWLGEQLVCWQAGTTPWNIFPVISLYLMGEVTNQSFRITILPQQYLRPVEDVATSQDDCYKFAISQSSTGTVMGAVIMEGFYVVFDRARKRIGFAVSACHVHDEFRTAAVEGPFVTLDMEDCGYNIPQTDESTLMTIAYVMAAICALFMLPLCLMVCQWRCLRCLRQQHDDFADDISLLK
Outline: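 Fluorescence read after Tris quench (pH raised to neutrality) of a one-hour BACE reaction. Buffer: acetate 0.05 M, pH 4.2, with 100 uM genapol and 10% DMSO final; started by adding 50 nM FRET peptide substrate spanning the cleavage site.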

[3] = HEK293, average IC50, read-out: HEK cell assay
[4] = HEK293, average IC50, HEK cells, read-out: HEK cell assay

IC50 [1, 3] | IC50 ([2]; read-out: BACE 1 FRET assay) | IC50 [1, 4] | Compound | IC50 ([1]; HEK293, read-out: HEK cell assay (uM)) | IC50 ([2]; BACE 1 FRET assay (uM))
0.002 µM | 0.0003 µM |  | CC#Cc1cncc(-c2ccc3c(c2)[C@@]2(COC(N)=N2)c2cc(C4=CCOCC4)nc(F)c2O3)c1 [Example 760, (5S)-3-(3,6-dihydro-2H-pyran-4-yl)-1-fluoro-7-(5-(1-propyn-1-yl)-3-pyridinyl)spiro[chromeno[2,3-c]pyridine-5,4′-[1,3]oxazol]-2′-amine] |  | 
 | 0.001 µM | 0.005 µM | Cc1cc(-c2cc3c(cn2)Oc2ccc(-c4cccnc4F)cc2[C@@]32CSC(N)=N2)ccn1 [Example 934, (5S)-7-(2-fluoro-3-pyridinyl)-3-(2-methyl-4-pyridinyl)spiro[chromeno[2,3-c]pyridine-5,4′-[1,3]thiazol]-2′-amine] |  | 
 | 0.112 µM | 0.455 µM | NC1=N[C@@]2(CO1)c1cc(OCc3ccncc3)ccc1Oc1ncc(C3=CCOCC3)cc12 [Example 970, (5S)-3-(3,6-dihydro-2H-pyran-4-yl)-7-(4-pyridinylmethoxy)spiro[chromeno[2,3-b]pyridine-5,4′-[1,3]oxazol]-2′-amine] |  | 
0.033 µM | 0.0008 µM |  | CC1(C)CC(c2cc(F)c3c(c2)[C@]2(COC(N)=N2)c2cc(-c4cccnc4F)ccc2O3)=CC(=O)O1 [Example 804, 4-((4S)-2-amino-4′-fluoro-7′-(2-fluoro-3-pyridinyl)spiro[1,3-oxazole-4,9′-xanthen]-2′-yl)-6,6-dimethyl-5,6-dihydro-2H-pyran-2-one] |  | 
0.006 µM | 0.0004 µM |  | N#Cc1cccc(-c2ccc3c(c2)[C@@]2(COC(N)=N2)c2cc(C4=CCOCC4)nc(F)c2O3)c1 [Example 743, 3-((5S)-2′-amino-3-(3,6-dihydro-2H-pyran-4-yl)-1-fluorospiro[chromeno[2,3-c]pyridine-5,4′-[1,3]oxazol]-7-yl)benzonitrile] |  | 
0.02 µM | 0.0073 µM |  | COc1nc(-c2ccncc2)cc2c1Oc1ccc(-c3cccnc3)cc1[C@@]21COC(N)=N1 [Example 838, (5S)-1-methoxy-7-(3-pyridinyl)-3-(4-pyridinyl)spiro[chromeno[2,3-c]pyridine-5,4′-[1,3]oxazol]-2′-amine] |  | 

Second part, the compound before the results:

Compound | IC50 [1, 3] | IC50 ([2]; read-out: BACE 1 FRET assay) | IC50 [1, 4] | IC50 ([1]; HEK293, read-out: HEK cell assay (uM)) | IC50 ([2]; BACE 1 FRET assay (uM))
CC1(COc2cc(F)c3c(c2)[C@]2(COC(N)=N2)c2cc(-c4cccnc4)c(F)cc2O3)COC1 [Example 294, (4S)-3′,5′-difluoro-7′-((3-methyl-3-oxetanyl)methoxy)-2′-(3-pyridinyl)spiro[1,3-oxazole-4,9′-xanthen]-2-amine] | 0.612 µM | 0.0611 µM |  |  | 
CC(C)(C)COc1ccc2c(c1)[C@]1(COC(N)=N1)c1c(ccc(-c3cncnc3)c1F)O2 [Example 515, (4R)-7′-(2,2-dimethylpropoxy)-1′-fluoro-2′-(5-pyrimidinyl)spiro[1,3-oxazole-4,9′-xanthen]-2-amine] |  | 0.0013 µM | 0.0285 µM |  | 
Cn1cc(-c2cc(F)c3c(c2)[C@]2(COC(N)=N2)c2cc(-c4cncc(C#N)c4)ccc2O3)cn1 [Example 554, 5-((4S)-2-amino-5′-fluoro-7′-(1-methyl-1H-pyrazol-4-yl)spiro[1,3-oxazole-4,9′-xanthen]-2′-yl)-3-pyridinecarbonitrile] |  | 0.0016 µM | 0.0063 µM |  | 
Cc1cc(-c2cc(F)c3c(c2)[C@]2(COC(N)=N2)c2cc(-c4cccnc4F)ccc2O3)cc(=O)o1 [Example 200, 4-((4S)-2-amino-4′-fluoro-7′-(2-fluoro-3-pyridinyl)spiro[1,3-oxazole-4,9′-xanthen]-2′-yl)-6-methyl-2H-pyran-2-one] | 0.0085 µM | 0.0006 µM |  |  | 
NC1=N[C@@]2(CO1)c1cc(-c3cccnc3F)ccc1Oc1c(F)cc(N3CCC4(CC3)COC4)cc12 [Example 189, (4S)-4′-fluoro-7′-(2-fluoro-3-pyridinyl)-2′-(2-oxa-7-azaspiro[3.5]non-7-yl)spiro[1,3-oxazole-4,9′-xanthen]-2-amine] | 0.0078 µM | 0.0008 µM |  |  | 
CC(C)(C)/C=C/c1cc2c(cn1)Oc1ccc(-c3cncc(F)c3)cc1[C@@]21COC(N)=N1 [Example 372, (5S)-3-((1E)-3,3-dimethyl-1-buten-1-yl)-7-(5-fluoro-3-pyridinyl)spiro[chromeno[2,3-c]pyridine-5,4′-[1,3]oxazol]-2′-amine] | 0.0149 µM | 0.0008 µM |  |  | 
NC1=N[C@@]2(CO1)c1cc(-c3cccnc3F)ccc1Oc1cnc([C@@H]3CCCOC3)cc12 [Example 382, (5S)-7-(2-fluoro-3-pyridinyl)-3-((3S)-tetrahydro-2H-pyran-3-yl)spiro[chromeno[2,3-c]pyridine-5,4′-[1,3]oxazol]-2′-amine] |  |  |  | 0.123 µM | 0.0113 µM
COc1cc(-c2cc3c(cn2)Oc2ccc(-c4cccc(Cl)c4)cc2[C@@]32COC(N)=N2)ccc1F [Example 538, (5S)-7-(3-chlorophenyl)-3-(4-fluoro-3-methoxyphenyl)spiro[chromeno[2,3-c]pyridine-5,4′-[1,3]oxazol]-2′-amine] |  | 0.0052 µM | 0.583 µM |  | 
CC1(C#Cc2cnc3c(c2)[C@]2(COC(N)=N2)c2cc(-c4cncc(C(F)(F)F)c4)ccc2O3)COC1 [Example 187, (5S)-3-((3-methyl-3-oxetanyl)ethynyl)-7-(5-(trifluoromethyl)-3-pyridinyl)spiro[chromeno[2,3-b]pyridine-5,4′-[1,3]oxazol]-2′-amine] | 0.0116 µM | 0.0029 µM |  |  | 
NC1=N[C@@]2(CO1)c1cc(-c3cccc(C(F)(F)F)c3)ccc1Oc1cnc(C3=CCOCC3)cc12 [Example 145, (5S)-3-(3,6-dihydro-2H-pyran-4-yl)-7-(3-(trifluoromethyl)phenyl)spiro[chromeno[2,3-c]pyridine-5,4′-[1,3]oxazol]-2′-amine] | 0.0819 µM | 0.0022 µM |  |  | 
NC1=N[C@@]2(CO1)c1cc(-c3cc(C4=CCOCC4)cnc3F)ccc1Oc1cnc(C3=CCOCC3)cc12 [Example 362, (5S)-3-(3,6-dihydro-2H-pyran-4-yl)-7-(5-(3,6-dihydro-2H-pyran-4-yl)-2-fluoro-3-pyridinyl)spiro[chromeno[2,3-c]pyridine-5,4′-[1,3]oxazol]-2′-amine] | 0.114 µM | 0.0063 µM |  |  | 
COc1cncc(-c2ccc3c(c2)[C@@]2(COC(N)=N2)c2cc(C4=CCOCC4)cnc2O3)c1 [Example 459, (5S)-3-(3,6-dihydro-2H-pyran-4-yl)-7-(5-methoxy-3-pyridinyl)spiro[chromeno[2,3-b]pyridine-5,4′-[1,3]oxazol]-2′-amine] |  | 0.0022 µM | 0.0062 µM |  | 
NC1=N[C@]2(CO1)c1cc(-c3cccc(Cl)c3)ccc1Oc1cnc(C3=CCOCC3)cc12 [Example 234, (5R)-7-(3-chlorophenyl)-3-(3,6-dihydro-2H-pyran-4-yl)spiro[chromeno[2,3-c]pyridine-5,4′-[1,3]oxazol]-2′-amine] | 4.28 µM | 0.49 µM |  |  | 
NC1=N[C@@]2(CO1)c1cc(-c3cncc(Cl)c3)ccc1Oc1cnc(C3CCOCC3)cc12 [Example 242, (5S)-7-(5-chloro-3-pyridinyl)-3-(tetrahydro-2H-pyran-4-yl)spiro[chromeno[2,3-c]pyridine-5,4′-[1,3]oxazol]-2′-amine] | 0.0211 µM | 0.0031 µM |  |  | 
N#Cc1cncc(-c2ccc3c(c2)[C@@]2(COC(N)=N2)c2cc(C4=CCOCC4)ccc2O3)c1 [Example 190, 5-((4R)-2-amino-7′-(3,6-dihydro-2H-pyran-4-yl)spiro[1,3-oxazole-4,9′-xanthen]-2′-yl)-3-pyridinecarbonitrile] | 0.0231 µM | 0.0103 µM |  |  | 
